In patent US11931424B2, “Combination MCL-1 inhibitors with anti-body drug conjugates” (Gilead Sciences, Inc., priority 2021, dated 2024):

Tested on: panel of breast cancer cell lines
Assay: Compound A with targeted agents and chemotherapies, 72-hour in vitro proliferation assays
Type: cell-based
Settings: compound A × partner, 72-hour proliferation

Cn1ncnc1[C@H]1c2n[nH]c(=O)c3cc(F)cc(c23)N[C@@H]1c1ccc(F)cc1 [BMN 673]
Best CI (AU565 cell line): 0.72 | Bliss Volume (AU565 cell line): 5.62 | HSA volume (AU565 cell line): 2.94 | Synergy Score (AU565 cell line): 8.12 | Best CI (BT-20 cell line): 0.67 | Bliss Volume (BT-20 cell line): 6.61 | HSA volume (BT-20 cell line): 7.19 | Loewe Volume (BT-20 cell line): 7.05 | Synergy Score (BT-20 cell line): 13.00 | Best CI (CAL-51 cell line): 0.26 | Bliss Volume (CAL-51 cell line): 6.45 | HSA volume (CAL-51 cell line): 8.03 | Loewe Volume (CAL-51 cell line): 8.01 | Synergy Score (CAL-51 cell line): 6.14 | Best CI (CAL-85-1 cell line): 0.10 | Bliss Volume (CAL-85-1 cell line): 9.61 | HSA volume (CAL-85-1 cell line): 13.84 | Loewe Volume (CAL-85-1 cell line): 13.04 | Synergy Score (CAL-85-1 cell line): 13.48 | Best CI (CAL-120 cell line): 2.73 | Bliss Volume (CAL-120 cell line): −3.70 | HSA volume (CAL-120 cell line): −7.12 | Loewe Volume (CAL-120 cell line): −9.94 | Synergy Score (CAL-120 cell line): 0.01 | Best CI (CAL-148 cell line): 0.03 | Bliss Volume (CAL-148 cell line): 32.27 | HSA volume (CAL-148 cell line): 30.51 | Loewe Volume (CAL-148 cell line): 33.70 | Synergy Score (CAL-148 cell line): 51.37 | Best CI (CAMA-1 cell line): 0.44 | Bliss Volume (CAMA-1 cell line): 14.84 | HSA volume (CAMA-1 cell line): 11.15 | Loewe Volume (CAMA-1 cell line): 11.46 | Best CI (DU-4475 cell line): 0.90 | Bliss Volume (DU-4475 cell line): 14.54 | HSA volume (DU-4475 cell line): 11.67 | Loewe Volume (DU-4475 cell line): 11.80 | Synergy Score (DU-4475 cell line): 12.59 | Best CI (EVSA-T cell line): 0.76 | Bliss Volume (EVSA-T cell line): 12.51 | HSA volume (EVSA-T cell line): 5.77 | Loewe Volume (EVSA-T cell line): 5.78 | Synergy Score (EVSA-T cell line): 7.17 | Best CI (HCC38): 0.09 | Bliss Volume (HCC38): 12.68 | Loewe Volume (HCC38): 13.43 | Synergy Score (HCC38): 20.73 | Best CI (HCC70): 0.39 | Bliss Volume (HCC70): 15.24 | HSA volume (HCC70): 15.02 | Loewe Volume (HCC70): 15.13 | Best CI (HCC1143 cell line): 0.53 | Bliss Volume (HCC1143 cell line): 0.82 | HSA volume (HCC1143 cell line): 2.15 | Loewe Volume (HCC1143 cell line): 1.38 | Synergy Score (HCC1143 cell line): 4.91 | Best CI (HCC1569): 0.55 | Bliss Volume (HCC1569): 9.55 | HSA volume (HCC1569): 11.82 | Loewe Volume (HCC1569): 11.51 | Synergy Score (HCC1569): 10.50 | Best CI (HCC1806): 0.15 | Bliss Volume (HCC1806): 15.34 | HSA volume (HCC1806): 21.19 | Loewe Volume (HCC1806): 21.61 | Synergy Score (HCC1806): 26.09 | Best CI (HCC1937): 0.51 | Bliss Volume (HCC1937): 5.18 | HSA volume (HCC1937): 0.65 | Loewe Volume (HCC1937): 4.96 | Synergy Score (HCC1937): 3.27 | Best CI (HCC1954): 0.56 | Bliss Volume (HCC1954): 7.66 | HSA volume (HCC1954): 7.39 | Loewe Volume (HCC1954): 8.33 | Synergy Score (HCC1954): 9.80 | Best CI (HCC2218): 0.90 | Bliss Volume (HCC2218): 1.41 | HSA volume (HCC2218): 0.71 | Loewe Volume (HCC2218): 0.15 | Synergy Score (HCC2218): 5.35 | Best CI (HDQ-P1): 0.91 | Bliss Volume (HDQ-P1): 0.31 | HSA volume (HDQ-P1): −0.95 | Loewe Volume (HDQ-P1): −0.15 | Synergy Score (HDQ-P1): 1.09 | Best CI (HMC-1-8): 0.22 | Bliss Volume (HMC-1-8): 22.38 | HSA volume (HMC-1-8): 11.38 | Loewe Volume (HMC-1-8): 11.09 | Synergy Score (HMC-1-8): 19.54 | Best CI (JIMT-1): 0.13 | Bliss Volume (JIMT-1): −0.56 | HSA volume (JIMT-1): −1.70 | Loewe Volume (JIMT-1): −1.62 | Synergy Score (JIMT-1): 1.28 | Best CI (KPL-1): 0.53 | Bliss Volume (KPL-1): −2.58 | HSA volume (KPL-1): 0.29 | Synergy Score (KPL-1): 1.84
